Numbers after ± are expanded uncertainties.
Test: xn = mol fraction of the nth substance listed
Conditions: 101 kPa, Liquid, Vibrating tube method

CC(C)CC(C)(C)C [2,2,4-trimethylpentane] + CCC(C)(C)OC
x2 = 0
Conditions	mass density [kg/m3]
298.15 K	687.68 ± 0.16
308.15 K	679.48 ± 0.16
318.15 K	671.34 ± 0.16

CC(C)CC(C)(C)C [2,2,4-trimethylpentane] + c1ccccc1
Conditions	mass density [kg/m3]
298.15 K, x2 = 0	687.69 ± 0.18
298.15 K, x2 = 0.06106	693.48 ± 0.18
298.15 K, x2 = 0.1418	701.74 ± 0.17
298.15 K, x2 = 0.2015	708.37 ± 0.17
298.15 K, x2 = 0.2685	716.35 ± 0.17
298.15 K, x2 = 0.3382	725.38 ± 0.16
298.15 K, x2 = 0.399	733.9 ± 0.16
298.15 K, x2 = 0.4639	743.77 ± 0.16
298.15 K, x2 = 0.5179	752.66 ± 0.15
298.15 K, x2 = 0.5986	767.18 ± 0.15
298.15 K, x2 = 0.6562	778.61 ± 0.14
298.15 K, x2 = 0.7257	793.77 ± 0.14
298.15 K, x2 = 0.7993	811.66 ± 0.13
298.15 K, x2 = 0.871	831.31 ± 0.13
298.15 K, x2 = 0.9483	855.37 ± 0.12
308.15 K, x2 = 0	679.5 ± 0.18
308.15 K, x2 = 0.07837	686.91 ± 0.18
308.15 K, x2 = 0.139	693.09 ± 0.18
308.15 K, x2 = 0.2112	701.03 ± 0.17
308.15 K, x2 = 0.2701	707.99 ± 0.17
308.15 K, x2 = 0.3244	714.88 ± 0.17
308.15 K, x2 = 0.3912	723.99 ± 0.16
308.15 K, x2 = 0.4607	734.35 ± 0.16
308.15 K, x2 = 0.5319	745.93 ± 0.15
308.15 K, x2 = 0.6019	758.53 ± 0.15
308.15 K, x2 = 0.6669	771.38 ± 0.14
308.15 K, x2 = 0.7335	785.91 ± 0.14
308.15 K, x2 = 0.7944	800.56 ± 0.13
308.15 K, x2 = 0.8662	819.8 ± 0.13
308.15 K, x2 = 0.9302	839.08 ± 0.12
318.15 K, x2 = 0	671.34 ± 0.19
318.15 K, x2 = 0.07013	677.83 ± 0.18
318.15 K, x2 = 0.1336	684.16 ± 0.18
318.15 K, x2 = 0.2025	691.56 ± 0.18
318.15 K, x2 = 0.272	699.64 ± 0.17
318.15 K, x2 = 0.3457	708.99 ± 0.17
318.15 K, x2 = 0.4011	716.6 ± 0.17
318.15 K, x2 = 0.466	726.21 ± 0.16
318.15 K, x2 = 0.535	737.39 ± 0.16
318.15 K, x2 = 0.5941	747.85 ± 0.15
318.15 K, x2 = 0.6592	760.41 ± 0.15
318.15 K, x2 = 0.7319	775.94 ± 0.14
318.15 K, x2 = 0.7981	791.66 ± 0.14
318.15 K, x2 = 0.8656	809.56 ± 0.13
318.15 K, x2 = 0.9321	829.34 ± 0.12

CCC(C)(C)OC [2-methoxy-2-methylbutane] + CC(C)CC(C)(C)C
Conditions	mass density [kg/m3]
298.15 K, x1 = 0.06668	691.73 ± 0.16
298.15 K, x1 = 0.1334	695.93 ± 0.16
298.15 K, x1 = 0.2065	700.7 ± 0.17
298.15 K, x1 = 0.2712	705.05 ± 0.18
298.15 K, x1 = 0.3376	709.68 ± 0.19
298.15 K, x1 = 0.3977	713.99 ± 0.2
298.15 K, x1 = 0.4666	719.11 ± 0.22
298.15 K, x1 = 0.527	723.75 ± 0.24
298.15 K, x1 = 0.5952	729.17 ± 0.26
298.15 K, x1 = 0.6668	735.06 ± 0.29
298.15 K, x1 = 0.7314	740.58 ± 0.32
298.15 K, x1 = 0.7975	746.43 ± 0.36
298.15 K, x1 = 0.8616	752.31 ± 0.39
298.15 K, x1 = 0.9325	759.06 ± 0.44
298.15 K, x1 = 1	765.77 ± 0.49
308.15 K, x1 = 0.06672	683.48 ± 0.16
308.15 K, x1 = 0.1383	687.9 ± 0.17
308.15 K, x1 = 0.2056	692.2 ± 0.17
308.15 K, x1 = 0.2684	696.36 ± 0.18
308.15 K, x1 = 0.3406	701.28 ± 0.19
308.15 K, x1 = 0.401	705.55 ± 0.2
308.15 K, x1 = 0.4585	709.75 ± 0.22
308.15 K, x1 = 0.5291	715.06 ± 0.24
308.15 K, x1 = 0.5953	720.24 ± 0.26
308.15 K, x1 = 0.6632	725.74 ± 0.29
308.15 K, x1 = 0.7339	731.67 ± 0.32
308.15 K, x1 = 0.7946	736.96 ± 0.35
308.15 K, x1 = 0.8646	743.27 ± 0.39
308.15 K, x1 = 0.9319	749.58 ± 0.44
308.15 K, x1 = 1	756.19 ± 0.48
318.15 K, x1 = 0.06682	675.24 ± 0.17
318.15 K, x1 = 0.1368	679.49 ± 0.17
318.15 K, x1 = 0.1974	683.27 ± 0.17
318.15 K, x1 = 0.2673	687.79 ± 0.18
318.15 K, x1 = 0.3375	692.5 ± 0.19
318.15 K, x1 = 0.401	696.91 ± 0.21
318.15 K, x1 = 0.4676	701.69 ± 0.22
318.15 K, x1 = 0.5324	706.5 ± 0.24
318.15 K, x1 = 0.5984	711.56 ± 0.26
318.15 K, x1 = 0.6593	716.41 ± 0.29
318.15 K, x1 = 0.7309	722.32 ± 0.32
318.15 K, x1 = 0.7982	728.08 ± 0.35
318.15 K, x1 = 0.8669	734.18 ± 0.39
318.15 K, x1 = 0.932	740.18 ± 0.43
318.15 K, x1 = 1	746.69 ± 0.48

CCC(C)(C)OC [2-methoxy-2-methylbutane] + c1ccccc1
Conditions	mass density [kg/m3]
298.15 K, x2 = 0	765.79 ± 1.2
298.15 K, x2 = 0.06414	770.46 ± 1.1
298.15 K, x2 = 0.1353	775.9 ± 0.97
298.15 K, x2 = 0.2019	781.23 ± 0.87
298.15 K, x2 = 0.2693	786.88 ± 0.76
298.15 K, x2 = 0.3352	792.67 ± 0.67
298.15 K, x2 = 0.4021	798.87 ± 0.58
298.15 K, x2 = 0.4653	805.02 ± 0.5
298.15 K, x2 = 0.5342	812.08 ± 0.43
298.15 K, x2 = 0.6022	819.46 ± 0.36
298.15 K, x2 = 0.6671	826.93 ± 0.3
298.15 K, x2 = 0.7367	835.44 ± 0.24
298.15 K, x2 = 0.7973	843.32 ± 0.2
298.15 K, x2 = 0.8665	852.89 ± 0.16
298.15 K, x2 = 0.9336	862.89 ± 0.13
308.15 K, x2 = 0	756.23 ± 1.2
308.15 K, x2 = 0.06701	761.09 ± 1.1
308.15 K, x2 = 0.1338	766.17 ± 0.96
308.15 K, x2 = 0.2009	771.51 ± 0.85
308.15 K, x2 = 0.2672	777.02 ± 0.76
308.15 K, x2 = 0.3336	782.8 ± 0.66
308.15 K, x2 = 0.4024	789.11 ± 0.57
308.15 K, x2 = 0.4715	795.77 ± 0.49
308.15 K, x2 = 0.5344	802.18 ± 0.42
308.15 K, x2 = 0.6008	809.31 ± 0.36
308.15 K, x2 = 0.6685	816.98 ± 0.3
308.15 K, x2 = 0.7345	824.97 ± 0.24
308.15 K, x2 = 0.7995	833.32 ± 0.2
308.15 K, x2 = 0.8625	841.93 ± 0.16
308.15 K, x2 = 0.9344	852.47 ± 0.13
318.15 K, x2 = 0	746.71 ± 1.2
318.15 K, x2 = 0.06757	751.58 ± 1.1
318.15 K, x2 = 0.1346	756.63 ± 0.94
318.15 K, x2 = 0.2014	761.91 ± 0.84
318.15 K, x2 = 0.269	767.5 ± 0.74
318.15 K, x2 = 0.3371	773.39 ± 0.65
318.15 K, x2 = 0.4031	779.4 ± 0.57
318.15 K, x2 = 0.4661	785.42 ± 0.49
318.15 K, x2 = 0.5339	792.26 ± 0.42
318.15 K, x2 = 0.6012	799.41 ± 0.35
318.15 K, x2 = 0.6679	806.93 ± 0.3
318.15 K, x2 = 0.7346	814.9 ± 0.24
318.15 K, x2 = 0.7994	823.13 ± 0.2
318.15 K, x2 = 0.8645	831.93 ± 0.16
318.15 K, x2 = 0.9333	841.85 ± 0.13

c1ccccc1 [benzene] + CC(C)CC(C)(C)C
x1 = 1
Conditions	mass density [kg/m3]
298.15 K	873.52 ± 0.11
308.15 K	862.84 ± 0.11
318.15 K	852.18 ± 0.11

c1ccccc1 [benzene] + CCC(C)(C)OC
x1 = 1
Conditions	mass density [kg/m3]
298.15 K	873.53 ± 0.11
308.15 K	862.85 ± 0.11
318.15 K	852.18 ± 0.11

Reference: the NIST ThermoML archive (doi:10.1016/j.fluid.2012.09.007)
